Assay results as given in US12227500B2, “Substituted pyrrolo[2,3-b]pyridines for suppressing toxic endoplasmic reticulum stress” (THE TRUSTEES OF COLUMBIA UNIVERSITY IN THE CITY OF NEW YORK, priority 2018, dated 2025).
Like-named read-outs stand apart in the source and are kept apart here.

Experiments:
HGK/MAP4K4 = HGK/MAP4K4 (Homo sapiens, UniProt O95819); test: Radiolabeled ATP kinase assay (Reaction Biology Corp.), HGK; assay type: biochemical; design: purchased Reaction Biology Corp; settings: 10 μM ATP, read-out: % Enzyme Activity (relative to DMSO controls), HGK/MAP4K4, Data 1; for remaining activity at 0.025 µM: [Cmpd] 0.025 μM; for remaining activity at 0.1 µM: [Cmpd] 0.1 μM
Procedure: (§1) Meanwhile, the same analogs were analyzed in a radiolabeled ATP assay (10 μM ATP; Reaction Biology Corp.) to compare the extent to which they could inhibit the activity of HGK, MLK1, or MLK3 in a cell-free environment (Table S3 and S4).

MLK3/MAP3K11 = target: T1, MLK3/MAP3K11 (Homo sapiens, UniProt Q16584); test: Radiolabeled ATP kinase assay (Reaction Biology Corp.), MLK3; assay type: biochemical; settings: [Cmpd] 0.1 μM; 10 μM ATP
T1 construct: purchased Reaction Biology Corp
Procedure: as §1

MLK1/MAP3K9 = target: T2, MLK1/MAP3K9 (Homo sapiens, UniProt P80192); test: Radiolabeled ATP kinase assay (Reaction Biology Corp.), MLK1; assay type: biochemical; settings: [Cmpd] 0.1 μM, 10 μM ATP
T2 construct: purchased Reaction Biology Corp
Procedure: as §1

[1] = test system: human ES motor neurons carrying the ALS-causing SOD1^A4V mutation; test: cells; assay type: cell-based; settings: 72 h
Procedure: Next, survival assays were performed with all the analogs at once to generate a low-variability dataset. All compounds were evaluated at concentrations ranging from 0.1-3.0 μM (five-point dilution) in three technical replicates and two biological replicates.

[2] = read-out: % Enzyme Activity Remaining (relative to DMSO controls), MLK1/MAP3K9, Data 1
[3] = read-out: % Enzyme Activity Remaining (relative to DMSO controls), MLK1/MAP3K9, Data 2

T2 sequence (P80192 whole entry): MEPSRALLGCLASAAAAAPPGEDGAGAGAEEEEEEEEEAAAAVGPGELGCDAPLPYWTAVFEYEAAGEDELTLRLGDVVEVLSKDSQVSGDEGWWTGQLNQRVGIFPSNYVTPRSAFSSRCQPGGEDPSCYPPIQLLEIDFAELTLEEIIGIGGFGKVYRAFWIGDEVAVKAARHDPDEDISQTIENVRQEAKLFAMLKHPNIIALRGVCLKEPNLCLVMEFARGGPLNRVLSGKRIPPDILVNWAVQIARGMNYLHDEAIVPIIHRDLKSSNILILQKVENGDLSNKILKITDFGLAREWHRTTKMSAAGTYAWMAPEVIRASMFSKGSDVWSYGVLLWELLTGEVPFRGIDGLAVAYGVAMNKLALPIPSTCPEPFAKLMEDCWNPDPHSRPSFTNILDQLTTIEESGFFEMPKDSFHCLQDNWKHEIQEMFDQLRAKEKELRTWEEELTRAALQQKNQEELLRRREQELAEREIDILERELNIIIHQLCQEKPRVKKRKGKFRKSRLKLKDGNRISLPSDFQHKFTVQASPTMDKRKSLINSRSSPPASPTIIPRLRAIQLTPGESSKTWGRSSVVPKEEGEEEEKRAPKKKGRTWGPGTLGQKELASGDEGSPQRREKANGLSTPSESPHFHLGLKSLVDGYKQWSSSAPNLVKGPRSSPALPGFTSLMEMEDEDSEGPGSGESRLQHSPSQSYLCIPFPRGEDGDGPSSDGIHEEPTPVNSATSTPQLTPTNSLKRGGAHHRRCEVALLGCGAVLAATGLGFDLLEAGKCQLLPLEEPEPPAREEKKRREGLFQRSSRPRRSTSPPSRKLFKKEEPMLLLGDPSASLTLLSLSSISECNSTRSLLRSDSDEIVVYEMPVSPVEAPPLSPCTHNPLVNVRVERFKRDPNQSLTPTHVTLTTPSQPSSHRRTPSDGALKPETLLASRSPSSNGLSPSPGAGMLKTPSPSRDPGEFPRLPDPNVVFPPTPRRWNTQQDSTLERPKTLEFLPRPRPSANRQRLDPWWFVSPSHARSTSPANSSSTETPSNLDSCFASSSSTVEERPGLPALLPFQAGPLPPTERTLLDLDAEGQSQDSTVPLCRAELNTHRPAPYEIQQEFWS
T1 sequence (Q16584 whole entry): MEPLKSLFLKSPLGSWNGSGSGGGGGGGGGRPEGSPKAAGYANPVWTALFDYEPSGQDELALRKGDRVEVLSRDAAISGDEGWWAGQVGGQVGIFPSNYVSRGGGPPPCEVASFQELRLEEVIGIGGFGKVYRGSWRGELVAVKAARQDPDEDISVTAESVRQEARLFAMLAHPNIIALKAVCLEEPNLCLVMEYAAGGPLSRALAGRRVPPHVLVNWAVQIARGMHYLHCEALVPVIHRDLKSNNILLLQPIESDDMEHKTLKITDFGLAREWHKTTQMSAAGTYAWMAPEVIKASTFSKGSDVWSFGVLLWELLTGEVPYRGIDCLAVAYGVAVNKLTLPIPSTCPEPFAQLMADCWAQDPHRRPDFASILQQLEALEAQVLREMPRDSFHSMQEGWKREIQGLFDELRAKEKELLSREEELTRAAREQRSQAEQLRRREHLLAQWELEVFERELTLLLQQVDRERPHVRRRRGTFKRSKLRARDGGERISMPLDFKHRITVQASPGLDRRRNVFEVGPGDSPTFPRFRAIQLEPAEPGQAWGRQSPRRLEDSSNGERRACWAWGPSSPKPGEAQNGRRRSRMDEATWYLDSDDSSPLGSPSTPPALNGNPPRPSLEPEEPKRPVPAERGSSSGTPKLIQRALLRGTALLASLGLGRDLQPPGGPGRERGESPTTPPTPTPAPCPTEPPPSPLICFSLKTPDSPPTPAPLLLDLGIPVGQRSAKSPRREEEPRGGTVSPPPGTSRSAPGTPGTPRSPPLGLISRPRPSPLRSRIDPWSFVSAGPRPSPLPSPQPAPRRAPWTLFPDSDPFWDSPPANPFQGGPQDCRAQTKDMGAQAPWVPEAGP
Chain of HGK/MAP4K4 (O95819 whole entry): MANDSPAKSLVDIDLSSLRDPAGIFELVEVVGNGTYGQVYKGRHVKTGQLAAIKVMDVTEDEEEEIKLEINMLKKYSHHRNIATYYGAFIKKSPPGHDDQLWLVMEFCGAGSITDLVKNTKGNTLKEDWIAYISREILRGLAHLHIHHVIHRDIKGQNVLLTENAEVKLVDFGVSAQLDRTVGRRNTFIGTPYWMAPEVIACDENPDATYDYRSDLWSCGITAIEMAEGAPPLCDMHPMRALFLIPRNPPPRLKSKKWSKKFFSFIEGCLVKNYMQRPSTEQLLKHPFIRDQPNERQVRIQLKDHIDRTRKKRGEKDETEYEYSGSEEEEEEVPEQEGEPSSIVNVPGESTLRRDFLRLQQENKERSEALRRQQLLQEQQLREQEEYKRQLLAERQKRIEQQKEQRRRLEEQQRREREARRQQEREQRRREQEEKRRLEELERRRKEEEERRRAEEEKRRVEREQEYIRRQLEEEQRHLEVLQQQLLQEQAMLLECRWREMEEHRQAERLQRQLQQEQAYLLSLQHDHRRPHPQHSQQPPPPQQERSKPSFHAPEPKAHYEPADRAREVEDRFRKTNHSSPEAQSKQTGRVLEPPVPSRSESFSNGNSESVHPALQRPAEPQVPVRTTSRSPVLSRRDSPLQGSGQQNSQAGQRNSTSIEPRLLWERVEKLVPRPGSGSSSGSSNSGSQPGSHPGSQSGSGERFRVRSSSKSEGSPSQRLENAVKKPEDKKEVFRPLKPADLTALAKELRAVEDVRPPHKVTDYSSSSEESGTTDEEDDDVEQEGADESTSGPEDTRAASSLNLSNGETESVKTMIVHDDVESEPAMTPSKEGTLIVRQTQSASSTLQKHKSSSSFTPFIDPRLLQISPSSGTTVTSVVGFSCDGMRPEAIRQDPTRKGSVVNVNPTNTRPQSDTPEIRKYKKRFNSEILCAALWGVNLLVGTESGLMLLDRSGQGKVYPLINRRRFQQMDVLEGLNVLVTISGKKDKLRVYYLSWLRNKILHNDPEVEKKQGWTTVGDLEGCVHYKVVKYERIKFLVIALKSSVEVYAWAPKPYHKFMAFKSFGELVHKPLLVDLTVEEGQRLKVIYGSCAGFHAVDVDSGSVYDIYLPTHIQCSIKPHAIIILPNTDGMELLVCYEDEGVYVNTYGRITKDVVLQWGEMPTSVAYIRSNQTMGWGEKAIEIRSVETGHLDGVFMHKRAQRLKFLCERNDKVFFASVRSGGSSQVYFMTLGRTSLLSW

Structure (SMILES)	remaining activity at 0.025 µM (HGK/MAP4K4)	remaining activity at 0.1 µM (HGK/MAP4K4)	% Enzyme Activity Remaining (relative to DMSO controls), MLK3/MAP3K11, Data 1 (MLK3/MAP3K11)	% Enzyme Activity Remaining (relative to DMSO controls), MLK3/MAP3K11, Data 2 (MLK3/MAP3K11)	remaining activity at 0.1 µM (MLK1/MAP3K9; [2])	remaining activity at 0.1 µM (MLK1/MAP3K9; [3])	EC50 ([1]; CPA 33 μM)	viability at 1 µM ([1]; Homo sapiens, Neuron, CPA (33 μM) + compound (1 μM), read-out: Motor Neuron Survival, % untreated)	Emax ([1]; Homo sapiens, Neuron, CPA 33 μM, read-out: Emax (MN survival % untreated))
CN1CCN(Cc2ccc(-c3cnc4[nH]ccc4c3)cc2)CC1 [Compound 4, 5-(4-((4-Methylpiperazin-1-yl)methyl)phenyl)-1H-pyrrolo[2,3-b]pyridine]	101%	88.3%	91.95%	94.97%	95.9%	93.5%	Ambiguous	10.3%	13.7%
COc1cc(-c2c[nH]c3ncc(-c4ccc(CN5CCN(C)CC5)cc4)cc23)cc(OC)c1OC [Compound 7ap, 5-(4-((4-Methylpiperazin-1-yl)methyl)phenyl)-3-(3,4,5-trimethoxyphenyl)-1H-pyrrolo[2,3-b]pyridine]	35.6%	6.76%	70.05%	68.91%	54.2%	52.8%	–	–	–
COc1ccc(-c2c[nH]c3ncc(-c4ccc(CN5CCN(C)CC5)cc4)cc23)cc1C [Compound 7aq, 3-(4-Methoxy-3-methylphenyl)-5-(4-((4-methylpiperazin-1-yl)methyl)phenyl)-1H-pyrrolo[2,3-b]pyridine]	57.3%	20%	51.92%	49.61%	54.5%	53.6%	–	–	–
CN1CCN(Cc2ccc(-c3cnc4[nH]cc(-c5cccc(C(=O)O)c5)c4c3)cc2)CC1 [Compound 7j, 3-(5-(4-((4-Methylpiperazin-1-yl)methyl)phenyl)-1H-pyrrolo[2,3-b]pyridin-3-yl)benzoic acid]	63.6%	20.6%	46.91%	44.55%	77.7%	77.5%	–	–	–
CN1CCN(Cc2ccc(-c3cnc4[nH]cc(-c5cccc(O)c5)c4c3)cc2)CC1 [Compound 7r, 3-(5-(4-((4-Methylpiperazin-1-yl)methyl)phenyl)-1H-pyrrolo[2,3-b]pyridin-3-yl)phenol]	4.88%	1.23%	38.87%	39.87%	56.2%	58.6%	–	–	–
Cc1ccc(S(=O)(=O)n2cc(-c3ccc4[nH]ccc4c3)c3cc(-c4ccc(C=O)cc4)cnc32)cc1 [Compound 11, 4-(3-(1H-Indol-5-yl)-1-tosyl-1H-pyrrolo[2,3-b]pyridin-5-yl)benzaldehyde]	102%	85.5%	93.68%	88.60%	95%	95.5%	–	–	–
c1cc2cc(-c3c[nH]c4ncc(-c5ccc(CN6CC7CCC(C6)O7)cc5)cc34)ccc2[nH]1 [Compound 12a, 3-(4-(3-(1H-Indol-5-yl)-1H-pyrrolo[2,3-b]pyridin-5-yl)benzyl)-8-oxa-3-azabicyclo[3.2.1]octane]	72.8%	51.5%	52.18%	46.74%	56.2%	46.5%	–	–	–
